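Cells were grown in 96-well plates and exposed to each compound for 48 hours at five concentrations; endpoints were interpolated linearly between bracketing concentrations, or set to the highest concentration if not reached. TGI: concentration producing complete growth inhibition.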
Assays:
Assay in all cases: growth of human tumour cells (NCI), 48 h
[1] = tested on: SF-268 CNS
[2] = tested on: KM12 colon
[3] = tested on: NCI-H23 lung
[4] = tested on: HCT-116 colon
[5] = tested on: UACC-257 melanoma
[6] = tested on: HCT-15 colon
[7] = tested on: SN12C renal
[8] = tested on: U251 CNS
[9] = tested on: SF-539 CNS
[10] = tested on: UACC-62 melanoma
[11] = tested on: HOP-92 NSCLC
[12] = tested on: SK-MEL-28 melanoma
[13] = tested on: SNB-78 CNS
[14] = tested on: SR leukemia
[15] = tested on: COLO 205 colon
[16] = tested on: TK-10 renal
[17] = tested on: HT29 colon
[18] = tested on: MALME-3M melanoma
[19] = tested on: HL-60(TB) leukemia
[20] = tested on: SK-MEL-5 melanoma
[21] = tested on: XF 498 CNS
[22] = tested on: RPMI-8226 leukemia
[23] = tested on: SK-OV-3 ovarian
[24] = tested on: K-562 leukemia
[25] = tested on: LXFL 529 NSCLC
[26] = tested on: OVCAR-8 ovarian
[27] = tested on: OVCAR-4 ovarian
[28] = tested on: HOP-62 NSCLC
[29] = tested on: RXF 393 renal
[30] = tested on: SK-MEL-2 melanoma
[31] = tested on: IGROV1 ovarian
[32] = tested on: LOX IMVI melanoma
[33] = tested on: ACHN renal
[34] = tested on: CCRF-CEM leukemia
[35] = tested on: NCI-H460 lung
[36] = tested on: HCC-2998 colon
[37] = tested on: 786-0 renal
[38] = tested on: RXF-631 renal
[39] = tested on: DMS 273 small cell lung
[40] = tested on: A549 NSCLC
[41] = tested on: M19-MEL melanoma
[42] = tested on: MOLT-4 leukemia
[43] = tested on: DLD-1 colon
[44] = tested on: OVCAR-3 ovarian
[45] = tested on: A498 renal
[46] = tested on: SNB-75 CNS
[47] = tested on: SW-620 colon
[48] = tested on: M14 melanoma
[49] = tested on: EKVX NSCLC
[50] = tested on: DMS 114 small cell lung
[51] = tested on: SF-295 CNS

Q: With `Nc1ccc(C(c2ccccc2)(c2ccccc2)c2ccccc2)cc1` as the compound, how does the TGI [1] read?
A: Its TGI is greater than 100 µM.

Q: What about the TGI [2] of the same compound?
A: Its TGI is greater than 100 µM.

Q: And the TGI [3]?
A: Its TGI is 88.4 µM.

Q: And the TGI [4]?
A: Its TGI is greater than 100 µM.

Q: And the TGI [5]?
A: The TGI was greater than 100 µM.

Q: And the TGI [6]?
A: Its TGI is greater than 100 µM.

Q: What about the TGI [7] of the same compound?
A: Its TGI is greater than 100 µM.

Q: What about the TGI [8] of the same compound?
A: Its TGI is 62.1 µM.

Q: And the TGI [9]?
A: The TGI was greater than 100 µM.

Q: What about the TGI [10] of the same compound?
A: Its TGI is 41.3 µM.

Q: What about the TGI [11] of the same compound?
A: Its TGI is 31.1 µM.

Q: What about the TGI [12] of the same compound?
A: The TGI was 56.1 µM.

Q: What about the TGI [13] of the same compound?
A: Its TGI is 77 µM.

Q: And the TGI [14]?
A: The TGI was greater than 100 µM.

Q: What about the TGI [15] of the same compound?
A: Its TGI is greater than 100 µM.

Q: And the TGI [16]?
A: The TGI was 95.3 µM.

Q: And the TGI [17]?
A: The TGI was greater than 100 µM.

Q: What about the TGI [18] of the same compound?
A: The TGI was greater than 100 µM.

Q: What about the TGI [19] of the same compound?
A: Its TGI is 91.6 µM.

Q: What about the TGI [20] of the same compound?
A: The TGI was greater than 100 µM.

Q: And the TGI [21]?
A: Its TGI is 41.1 µM.

Q: What about the TGI [22] of the same compound?
A: Its TGI is greater than 100 µM.

Q: What about the TGI [23] of the same compound?
A: Its TGI is 35.7 µM.

Q: And the TGI [24]?
A: Its TGI is greater than 100 µM.

Q: And the TGI [25]?
A: The TGI was greater than 100 µM.

Q: And the TGI [26]?
A: Its TGI is greater than 100 µM.

Q: And the TGI [27]?
A: The TGI was greater than 100 µM.

Q: And the TGI [28]?
A: Its TGI is 75.8 µM.

Q: What about the TGI [29] of the same compound?
A: Its TGI is 56 µM.

Q: What about the TGI [30] of the same compound?
A: Its TGI is greater than 100 µM.

Q: What about the TGI [31] of the same compound?
A: Its TGI is greater than 100 µM.

Q: And the TGI [32]?
A: Its TGI is greater than 100 µM.

Q: And the TGI [33]?
A: Its TGI is greater than 100 µM.

Q: What about the TGI [34] of the same compound?
A: The TGI was greater than 100 µM.

Q: What about the TGI [35] of the same compound?
A: The TGI was greater than 100 µM.

Q: What about the TGI [36] of the same compound?
A: The TGI was greater than 100 µM.

Q: And the TGI [37]?
A: Its TGI is greater than 100 µM.

Q: What about the TGI [38] of the same compound?
A: The TGI was greater than 100 µM.

Q: And the TGI [39]?
A: The TGI was greater than 100 µM.

Q: And the TGI [40]?
A: The TGI was greater than 100 µM.

Q: What about the TGI [41] of the same compound?
A: Its TGI is greater than 100 µM.

Q: What about the TGI [42] of the same compound?
A: Its TGI is greater than 100 µM.

Q: And the TGI [43]?
A: The TGI was greater than 100 µM.

Q: What about the TGI [44] of the same compound?
A: The TGI was greater than 100 µM.

Q: And the TGI [45]?
A: The TGI was greater than 100 µM.

Q: What about the TGI [46] of the same compound?
A: Its TGI is 53.9 µM.

Q: And the TGI [47]?
A: The TGI was greater than 100 µM.

Q: What about the TGI [48] of the same compound?
A: The TGI was 30.1 µM.

Q: What about the TGI [49] of the same compound?
A: The TGI was greater than 100 µM.

Q: What about the TGI [50] of the same compound?
A: Its TGI is greater than 100 µM.

Q: What about the TGI [51] of the same compound?
A: Its TGI is 34.4 µM.

Reference: PubChem BioAssay (NCI)
